Experiments:
Assay type in all cases: cell-based, human
HCT116 [1] = test: Sensitivity of colorectal cancer cells to 5-FU
DLD-1 [2] = test: Sensitivity of colorectal cancer cells to 5-FU
HCT116 and DLD-1 cells = test: CE-TOFMS metabolomic analysis of intracellular metabolites after exposure to L-OHP; details: 10 μM L-OHP, 24-hour exposure
Method: Among the cell lines employed in Example 1, two human colorectal cancer cell lines (HCT116 and DLD-1) were employed. Cell culturing was performed by means of a φ100 mm/Tissue Culture Dish (IWAKI) with a medium (Dulbecco's modified Eagle's Medium (DMEM) containing 10% fetal bovine serum (product of Invitrogen) at 37° C. under 5% CO2 conditions.
The two colorectal cancer cells were exposed to L-OHP by changing the culture medium to a medium containing L-OHP at 10 μmol/L. The same culture was performed in an L-OHP-free medium (control group). After exposure to L-OHP (0 hr, 4 hr, 12 hr, 24 hr, and 48 hr), the cells were washed on ice with 5% mannitol (4° C.). Immediately thereafter, methanol (4° C., containing an internal standard) was added to the washed cells, to thereby inactivate present enzymes, and the cells were stored at −80° C. Separately, cells for cell count were provided in addition to the cells from which metabolites were extracted, and then subjected to the same treatment before performing cell count. The data were employed in correction of the cell counts. […]
Comprehensive analysis of intracellular metabolites was performed by means of a capillary electrophoresis-time-of-flight-type mass spectrometer (CE-TOFMS) (product of Agilent Technologies). […] Metabolites detected at m/z values of 50 to 1,000 were simultaneously quantitated.

SW1116 = test: MTS assay cell viability, 48 hours L-OHP exposure; details: SW1116, 48 hours exposure, read-out: IC50 value (L-OHP concentration at which cell growth is inhibited by 50%)
Text: (§1) Ten human colorectal cancer cell lines (DLD-1, HCT15, HCT116, HT29, Lovo, LS174T, SW480, SW620, SW1116, and WiDr) were employed. HCT116 and HT29 were obtained from Kabushiki Kaisha Yakult Honsha. DLD-1, Lovo, SW480, SW1116, and WiDr were obtained from Dainippon Sumitomo Pharma Co., Ltd. HCT15 and LS174T were obtained from Cell Resource Center for Biomedical Research, Institute of Development, Aging and Cancer, Tohoku University. SW620 was obtained from Summit Pharmaceuticals International Corporation.
(§2) Cancer cells of each cell line were exposed to 0- to 1,000-μmol/L L-OHP for 48 hours and after drug exposure, cell viability was determined by means of an MTS assay (CellTiter96™ AQueous One Solution Cell Proliferation Assay, Promega). IC50 value (L-OHP concentration at which cell growth is inhibited by 50% as compared with L-OHP-non-treated sample) was calculated, and sensitivity of each cell line to L-OHP was evaluated by the IC50 value as an index.

HCT15 = test: MTS assay cell viability, 48 hours L-OHP exposure
Text: as §1, §2

HCT116 [3] = test: MTS assay cell viability, 48 hours L-OHP exposure; details: HCT116, 48 hours exposure, read-out: IC50 value (L-OHP concentration at which cell growth is inhibited by 50%)
Text: as §1, §2

HT29 = test: MTS assay cell viability, 48 hours L-OHP exposure; details: HT29, 48 hours exposure, read-out: IC50 value (L-OHP concentration at which cell growth is inhibited by 50%)
Text: as §1, §2

Lovo = test: MTS assay cell viability, 48 hours L-OHP exposure; details: 48 hours exposure, read-out: IC50 value (L-OHP concentration at which cell growth is inhibited by 50%)
Text: as §1, §2

LS174T = test: MTS assay cell viability, 48 hours L-OHP exposure
Text: as §1, §2

DLD-1 [4] = test: MTS assay cell viability, 48 hours L-OHP exposure; details: DLD-1, 48 hours exposure, read-out: IC50 value (L-OHP concentration at which cell growth is inhibited by 50%)
Text: as §1, §2

SW620 = test: MTS assay cell viability, 48 hours L-OHP exposure
Text: as §1, §2

WiDr = test: MTS assay cell viability, 48 hours L-OHP exposure; details: 48 hours exposure, read-out: IC50 value (L-OHP concentration at which cell growth is inhibited by 50%)
Text: as §1, §2

SW480 = test: MTS assay cell viability, 48 hours L-OHP exposure; details: SW480, 48 hours exposure, read-out: IC50 value (L-OHP concentration at which cell growth is inhibited by 50%)
Text: as §1, §2

SMILES	sensitivity of the cell line to 5-FU (HCT116 [1])	sensitivity of the cell line to 5-FU (DLD-1 [2])	ratio (HCT116/DLD-1) of IMP intracellular level after exposure relative to control group (HCT116 and DLD-1 cells; IMP)	ratio (HCT116/DLD-1) of intracellular level after exposure relative to control group, each metabolite (HCT116 and DLD-1 cells; dTMP, CMP, UMP, GMP, CDP, UDP, dCTP, CTP, UTP, GTP, NADP+, ATP and/or dGTP)	IC50 (SW1116)	sensitivity group of the cell line to L-OHP on the basis of the MTS assay (HCT15)	IC50 (HCT116 [3])	IC50 (HT29)	IC50 (Lovo)	sensitivity group of the cell line to L-OHP on the basis of the MTS assay (LS174T)	IC50 (DLD-1 [4])	sensitivity group of the cell line to L-OHP on the basis of the MTS assay (SW620)	IC50 (WiDr)	IC50 (SW480)
O=c1[nH]cc(F)c(=O)[nH]1 [5-FU, fluorouracil]	high-sensitivity	low-sensitivity												
O=C1[O][Pt]2([NH][C@@H]3CCCC[C@H]3[NH]2)[O]C1=O [L-OHP, (SP-4-2)-[(1R,2R)-cyclohexane-1,2-diamine-κN,κN′][ethanedioato (2-)-κO^1,κO^2]platinum]			0.26	≥ 1.2	26.4 ± 4.12 µM	high-sensitive	0.89 ± 0.33 µM	23.9 ± 9.29 µM	0.72 ± 0.12 µM	low-sensitive	16.9 ± 6.31 µM	high-sensitive	17.3 ± 5.24 µM	0.65 ± 0.07 µM
